Reference: patent US20250101041A1, “POSITIVE ALLOSTERIC MODULATORS OF THE MUSCARINIC ACETYLCHOLINE RECEPTOR M4” (Vanderbilt University, priority 2022, published 2025)

Target: T1, human mAChR M4 (Homo sapiens, UniProt P08173)
T1 construct: expressed in transfected cells; host or cells: CHO-K1 (American Type Culture Collection), stably expressing hM4 and Gqi5
T1 sequence (P08173 1-479): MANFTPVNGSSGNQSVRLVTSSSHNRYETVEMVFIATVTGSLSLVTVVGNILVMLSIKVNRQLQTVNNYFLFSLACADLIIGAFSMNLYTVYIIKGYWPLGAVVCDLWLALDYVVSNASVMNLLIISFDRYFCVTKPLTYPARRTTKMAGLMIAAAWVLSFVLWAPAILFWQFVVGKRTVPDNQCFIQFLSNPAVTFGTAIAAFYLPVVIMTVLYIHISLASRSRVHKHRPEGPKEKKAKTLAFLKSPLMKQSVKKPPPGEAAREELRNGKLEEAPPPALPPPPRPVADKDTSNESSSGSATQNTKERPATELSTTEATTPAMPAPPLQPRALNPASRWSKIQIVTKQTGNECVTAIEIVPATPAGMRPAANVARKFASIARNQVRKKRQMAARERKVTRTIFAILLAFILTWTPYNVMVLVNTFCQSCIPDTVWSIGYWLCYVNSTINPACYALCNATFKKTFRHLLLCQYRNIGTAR
Assay: mAChR M4 cell-based functional assay: calcium mobilization (Fluo-4, FDSS), potentiation of EC20 acetylcholine response in hM4-Gqi5 CHO-K1 cells
Design: Emax: dose or concentration left out as unconfirmed
Conditions: for Emax at 30 µM: CHO-K1, % ACh maximum at 30 μM; for Emax at 30 µM / EC50: human M4; for EC50: potentiation of EC20 acetylcholine response, calcium mobilization
Method in brief: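 Readout is the fluorescence-ratio rise at 1 Hz on FDSS, with PAM activity taken as concentration-dependent enhancement of the EC20 acetylcholine response, fitted four-parameter for EC50/Emax. hM4-Gqi5 CHO-K1 cells carried Fluo-4 AM dye; test compounds (11 points, 1:3) preceded EC20 acetylcholine additions at 144 s and 230 s.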

| Compound | Emax at 30 µM [%] | EC50 [nM] | Emax (CHO-K1) [%] |
| --- | --- | --- | --- |
| Cc1cc2nccc(=O)n2nc1N1CCc2ncc(-c3cccc(C)c3C)cc2C1 [Compound 1-442, 7-(3-(2,3-dimethylphenyl)-7,8-dihydro-1,6-naphthyridin-6(5H)-yl)-8-methyl-4H-pyrimido [1,2-b]pyridazin-4-one] | 86 | 411 |  |
| Cc1cc(F)ccc1-c1cnc2c(c1)CN(c1nn3c(=O)ccnc3cc1C)CC2 [Compound 1-443, 7-(3-(4-fluoro-2-methylphenyl)-7,8-dihydro-1,6-naphthyridin-6(5H)-yl)-8-methyl-4H-pyrimido [1,2-b]pyridazin-4-one] | 99 | 210 |  |
| COc1c(F)cc(-c2cnc3c(c2)CN(c2nn4c(=O)ccnc4cc2C)CC3)c(C)c1F [Compound 1-444, 7-(3-(3,5-difluoro-4-methoxy-2-methylphenyl)-7,8-dihydro-1,6-naphthyridin-6(5H)-yl)-8-methyl-4H-pyrimido [1,2-b]pyridazin-4-one] | 93 | 131 |  |
| Cc1cc(F)c(F)cc1-c1cnc2c(c1)CN(c1nn3c(=O)ccnc3cc1C)CC2 [Compound 1-445, 7-(3-(4,5-difluoro-2-methylphenyl)-7,8-dihydro-1,6-naphthyridin-6(5H)-yl)-8-methyl-4H-pyrimido[1,2-b]pyridazin-4-one] | 85 | 78 |  |
| Cc1cc(F)c(F)cc1-c1cnc2c(c1)CN(c1nn3c(=O)ccnc3c(C)c1C)CC2 [Compound 1-446, 7-(3-(4,5-difluoro-2-methylphenyl)-7,8-dihydro-1,6-naphthyridin-6(5H)-yl)-8,9-dimethyl-4H-pyrimido[1,2-b]pyridazin-4-one] | 85 | 574 |  |
| Cc1cc2nccc(=O)n2nc1N1CCc2ncc(-c3cc(F)cc(F)c3C)cc2C1 [Compound 1-447, 7-(3-(3,5-difluoro-2-methylphenyl)-7,8-dihydro-1,6-naphthyridin-6(5H)-yl)-8-methyl-4H-pyrimido [1,2-b]pyridazin-4-one] | 83 | 191 |  |
| Cc1ccc2c(n1)CCN(c1nn3c(=O)ccnc3cc1C)C2 [Compound 1-448, 8-methyl-7-(2-methyl-7,8-dihydro-1,6-naphthyridin-6(5H)-yl)-4H-pyrimido[1,2-b] pyridazin-4-one] |  | 2300 | 66 |
| [2H]C1([2H])Cc2ncc(-c3ccnn3C)cc2C([2H])([2H])N1c1nn2c(=O)ccnc2cc1C [Compound 1-449, 8-methyl-7-(3-(1-methyl-1H-pyrazol-5-yl)-7,8-dihydro-1,6-naphthyridin-6(5H)-yl-5,5,7,7-d4)-4H-pyrimido[1,2-b]pyridazin-4-one] | 93 | 283 |  |
| [2H]C1([2H])Cc2ncc(-c3c(C)noc3C)cc2C([2H])([2H])N1c1nn2c(=O)ccnc2cc1C [Compound 1-450, 7-(3-(3,5-Dimethylisoxazol-4-yl)-7,8-dihydro-1,6-naphthyridin-6(5H)-yl-5,5,7,7-d4)-8-methyl-4H-pyrimido[1,2-b]pyridazin-4-one] | 95 | 291 |  |
| Cc1cc2nccc(=O)n2nc1N1CCc2ncc(N3CCCn4nccc43)cc2C1 [Compound 2-1, 7-(3-(6,7-dihydropyrazolo[1,5-a]pyrimidin-4(5H)-yl)-7,8-dihydro-1,6-naphthyridin-6(5H)-yl)-8-methyl-4H-pyrimido[1,2-b]pyridazin-4-one] | 97 | 21 |  |
| Cc1cc2nccc(=O)n2nc1N1CCc2ncc(N3CCO[C@H](C)C3)cc2C1 [Compound 2-2, (R)-8-methyl-7-(3-(2-methylmorpholino)-7,8-dihydro-1,6-naphthyridin-6(5H)-yl)-4H-pyrimido[1,2-b]pyridazin-4-one] | 87 | 363 |  |
| Cc1cc(N2CCc3ncc(N4CCCn5nccc54)cc3C2)nn2c(=O)ccnc12 [Compound 2-3, 7-(3-(6,7-dihydropyrazolo[1,5-a]pyrimidin-4(5H)-yl)-7,8-dihydro-1,6-naphthyridin-6(5H)-yl)-9-methyl-4H-pyrimido[1,2-b]pyridazin-4-one] | 71 | 173 |  |
| Cc1cc2ncc(Cl)c(=O)n2nc1N1CCc2ncc(N3CCCn4nccc43)cc2C1 [Compound 2-4, 3-chloro-7-(3-(6,7-dihydropyrazolo[1,5-a]pyrimidin-4(5H)-yl)-7,8-dihydro-1,6-naphthyridin-6(5H)-yl)-8-methyl-4H-pyrimido[1,2-b]pyridazin-4-one] | 115 | 30 |  |
| Cc1cc2n(n1)CCCN2c1cnc2c(c1)CN(c1nn3c(=O)ccnc3cc1C)CC2 [Compound 2-5, 8-methyl-7-(3-(2-methyl-6,7-dihydropyrazolo[1,5-a]pyrimidin-4(5H)-yl)-7,8-dihydro-1,6-naphthyridin-6(5H)-yl)-4H-pyrimido[1,2-b]pyridazin-4-one] | 97 | 60 |  |
| Cc1cc2nccc(=O)n2nc1N1CCc2ncc(-n3cccn3)cc2C1 [Compound 2-6, 7-(3-(1H-pyrazol-1-yl)-7,8-dihydro-1,6-naphthyridin-6(5H)-yl)-8-methyl-4H-pyrimido[1,2-b]pyridazin-4-one] | 65 | 1170 |  |
| Cc1cc2nccc(=O)n2nc1N1CCc2ncc(N3CCOc4ncccc43)cc2C1 [Compound 2-7, 7-(3-(2,3-dihydro-1H-pyrido[2,3-b][1,4]oxazin-1-yl)-7,8-dihydro-1,6-naphthyridin-6(5H)-yl)-8-methyl-4H-pyrimido[1,2-b]pyridazin-4-one] | 84 | 24 |  |
| Cc1cc2nccc(=O)n2nc1N1CCc2ncc(Nc3ccnn3C)cc2C1 [Compound 2-8, 8-methyl-7-(3-((1-methyl-1H-pyrazol-5-yl)amino)-7,8-dihydro-1,6-naphthyridin-6(5H)-yl)-4H-pyrimido[1,2-b]pyridazin-4-one] | 84 | 384 |  |
| Cc1cc2nc(C)c(F)c(=O)n2nc1N1CCc2ncc(N3CCCn4nccc43)cc2C1 [Compound 2-9, 7-(3-(6,7-dihydropyrazolo[1,5-a]pyrimidin-4(5H)-yl)-7,8-dihydro-1,6-naphthyridin-6(5H)-yl)-3-fluoro-2,8-dimethyl-4H-pyrimido[1,2-b]pyridazin-4-one] | 84 | 17 |  |
| Cc1cc(=O)n2nc(N3CCc4ncc(N5CCCn6nccc65)cc4C3)c(C)cc2n1 [Compound 2-10, 7-(3-(6,7-dihydropyrazolo[1,5-a]pyrimidin-4(5H)-yl)-7,8-dihydro-1,6-naphthyridin-6(5H)-yl)-2,8-dimethyl-4H-pyrimido[1,2-b]pyridazin-4-one] | 94 | 70 |  |
| Cc1cc2nc(C(F)(F)F)cc(=O)n2nc1N1CCc2ncc(N3CCCn4nccc43)cc2C1 [Compound 2-11, 7-(3-(6,7-dihydropyrazolo[1,5-a]pyrimidin-4(5H)-yl)-7,8-dihydro-1,6-naphthyridin-6(5H)-yl)-8-methyl-2-(trifluoromethyl)-4H-pyrimido[1,2-b]pyridazin-4-one] | 115 | 19 |  |
| Cc1nc2c(C)c(C)c(N3CCc4ncc(N5CCCn6nccc65)cc4C3)nn2c(=O)c1F [Compound 2-12, 7-(3-(6,7-dihydropyrazolo[1,5-a]pyrimidin-4(5H)-yl)-7,8-dihydro-1,6-naphthyridin-6(5H)-yl)-3-fluoro-2,8,9-trimethyl-4H-pyrimido[1,2-b]pyridazin-4-one] | 128 | 39 |  |
| Cc1cc2nc(C)c(C)c(=O)n2nc1N1CCc2ncc(N3CCCn4nccc43)cc2C1 [Compound 2-13, 7-(3-(6,7-dihydropyrazolo[1,5-a]pyrimidin-4(5H)-yl)-7,8-dihydro-1,6-naphthyridin-6(5H)-yl)-2,3,8-trimethyl-4H-pyrimido[1,2-b]pyridazin-4-one] | 82 | 27 |  |
| Cc1cc2nc(C(F)F)cc(=O)n2nc1N1CCc2ncc(N3CCCn4nccc43)cc2C1 [Compound 2-14, 2-(difluoromethyl)-7-(3-(6,7-dihydropyrazolo[1,5-a]pyrimidin-4(5H)-yl)-7,8-dihydro-1,6-naphthyridin-6(5H)-yl)-8-methyl-4H-pyrimido[1,2-b]pyridazin-4-one] | 88 | 22 |  |
| Cc1cc2nc(C3CC3)cc(=O)n2nc1N1CCc2ncc(N3CCCn4nccc43)cc2C1 [Compound 2-15, 2-cyclopropyl-7-(3-(6,7-dihydropyrazolo[1,5-a]pyrimidin-4(5H)-yl)-7,8-dihydro-1,6-naphthyridin-6(5H)-yl)-8-methyl-4H-pyrimido[1,2-b]pyridazin-4-one] | 85 | 7 |  |
| Cc1cc2nc(C)c(Cl)c(=O)n2nc1N1CCc2ncc(N3CCCn4nccc43)cc2C1 [Compound 2-16, 3-chloro-7-(3-(6,7-dihydropyrazolo[1,5-a]pyrimidin-4(5H)-yl)-7,8-dihydro-1,6-naphthyridin-6(5H)-yl)-2,8-dimethyl-4H-pyrimido[1,2-b]pyridazin-4-one] | 88 | 12 |  |
